Results: US9133240B2, “Compounds binding to the bacterial beta ring” (Centre National de la Recherche Scientifique, priority 2011, dated 2015)
Where “and” joins values, the source holds several entries; their conditions need not be identical. Identical values can stand only once. Square brackets hold non-standard residues; d marks the D form. Peptide text beside a SMILES is read from it. Phe(4-Cl) = N[C@@H](Cc1ccc(Cl)cc1)C(=O)O; Phe(4-Me) = Cc1ccc(C[C@H](N)C(=O)O)cc1; hCha = N[C@@H](CCC1CCCCC1)C(=O)O; tBuAla = CC(C)(C)C[C@H](N)C(=O)O; Cha = N[C@@H](CC1CCCCC1)C(=O)O; hLeu = CC(C)CC[C@H](N)C(=O)O

Tests used:
E. coli β clamp = target: T1, E. coli β clamp (Escherichia coli, UniProt P0A988); assay: SPR competition assay: inhibition of P1-β interaction by challenging peptides; type: binding; conditions: for ΔG: ΔG = −RT ln Ki; for IC50: IC50 (μM), inhibition of binding of β ring (0.25 μM) to immobilized P1; for Ki (10^6 M^−1): Ki = (1 + KA[β])/IC50;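 as to all read-outs here: SPR responses corrected for background, then fitted with a 1:1 Langmuir binding model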
T1 construct: made in house; host or cells: E. coli BL21 (β); P1 by solid-phase synthesis
Method: SPR experiments were performed on a Biacore® 3000. […] After subtraction of the background response, the data were fit to the 1:1 Langmuir model using BIAevaluation (Biacore™). […] IC50 values for each challenging peptide were determined by plotting the concentration of peptide against the percentage of binding inhibition. The IC50 value of each peptide was used to calculate Ki (Ki=(1+KA[β])/IC50) which measures the affinity of the challenging peptide for β in the competition assay, and AG was derived from Ki (ΔG=RT ln Ki).

β ring = target: T2, β ring (Escherichia coli, UniProt P0A988); assay: Isothermal titration calorimetry (ITC) of peptides into β ring solution; type: binding, E. coli; conditions: for N: number of binding sites per β monomer / ΔG: ITC, 25° C; for N: number of binding sites per β monomer: peptide 400 μM, β 20 or 30 μM; for ΔG: ΔG = ΔH-TΔS; for ΔΔG (Kcal/mol) = ΔGj − ΔGi, reference i = P7: compared to P7
T2 construct: made in house; host or cells: E. coli BL21
Method: ITC was performed by using a ITC200 microcalorimeter from MicroCal. Peptides (400 μM) were titrated in sequential injections (2 μl each) into a β ring solution (300 μl, 20 or 30 μM) at 25° C. Data were corrected from control experiments where peptides were injected in buffer solution (Hepes 10 mM pH 7.4, NaCl 0.15M, EDTA 3 mM, P20 0.005%). Data analysis was performed with Origin 7.0 software.

T2 sequence (P0A988 whole entry): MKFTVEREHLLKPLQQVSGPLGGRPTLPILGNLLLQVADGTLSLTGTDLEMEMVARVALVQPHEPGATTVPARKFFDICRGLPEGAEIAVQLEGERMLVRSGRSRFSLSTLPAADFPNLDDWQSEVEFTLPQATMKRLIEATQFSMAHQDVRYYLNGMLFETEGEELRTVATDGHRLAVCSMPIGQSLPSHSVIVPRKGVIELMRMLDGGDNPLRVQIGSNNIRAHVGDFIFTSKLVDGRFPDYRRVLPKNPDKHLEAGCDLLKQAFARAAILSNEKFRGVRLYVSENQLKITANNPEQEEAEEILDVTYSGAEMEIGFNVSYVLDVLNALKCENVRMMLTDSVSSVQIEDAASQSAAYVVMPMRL
T1 sequence (P0A988 whole entry): as above

Compound | ΔG (E. coli β clamp; SPR) | IC50 (E. coli β clamp; SPR) | Ki (10^6 M^−1) (E. coli β clamp; SPR) | other results
CC(C)C[C@H](NC(=O)[C@H](CC(=O)O)NC(=O)[C@H](CC(C)C)NC(=O)[C@@H](N)CCC(N)=O)C(=O)N[C@@H](Cc1ccccc1)C(=O)O [Peptide P5, H-Gln-Leu-Asp-Leu-Phe-OH] | -6.87 kcal/mol | – | – | –
CC(=O)N[C@@H](CCC(N)=O)C(=O)N[C@@H](CC(C)C)C(=O)N[C@@H](CC(=O)O)C(=O)N[C@@H](CC(C)C)C(=O)N[C@@H](Cc1ccccc1)C(=O)O [Peptide P6, Ac-Gln-Leu-Asp-Leu-Phe-OH] | -8.22 kcal/mol | – | – | N: number of binding sites per β monomer (β ring): 1.11 and 1.14
CC(=O)N[C@@H](CCC(N)=O)C(=O)N[C@@H](CC1CCCCC1)C(=O)N[C@@H](CC(=O)O)C(=O)N[C@@H](CC(C)C)C(=O)N[C@@H](Cc1ccccc1)C(=O)O [Peptide P7, Ac-Gln-Cha-Asp-Leu-Phe-OH] (Ac-Q[Cha]DLF-OH) | -9.42 kcal/mol | 0.17 µM | 8.01 10^6 M^−1 | ΔG (β ring): -8.9 kcal/mol; N: number of binding sites per β monomer (β ring): 0.74 and 0.76; ΔΔG (Kcal/mol) = ΔGj − ΔGi, reference i = P6 (β ring; from ITC data, compared to P6): -0.66 kcal/mol; Ki (E. coli β clamp): 170 nM; fold decrease in affinity compared to P14 (E. coli β clamp; SPR): 2 fold; fold increase in interaction/affinity compared to P6 (E. coli β clamp; SPR): 6 fold
CC(=O)N[C@@H](CCC(N)=O)C(=O)N[C@@H](CCC1CCCCC1)C(=O)N[C@@H](CC(=O)O)C(=O)N[C@@H](CC(C)C)C(=O)N[C@@H](Cc1ccccc1)C(=O)O [Peptide P8, Ac-Gln-hCha-Asp-Leu-Phe-OH] (Ac-Q[hCha]DLF-OH) | -5.74 kcal/mol | 82.8 µM | 16.4 10^6 M^−1 | –
CC(=O)N[C@@H](CCC(N)=O)C(=O)N[C@@H](CCC(C)C)C(=O)N[C@@H](CC(=O)O)C(=O)N[C@@H](CC(C)C)C(=O)N[C@@H](Cc1ccccc1)C(=O)O [Peptide P9, Ac-Gln-Hol-Asp-Leu-Phe-OH] | -8.54 kcal/mol | 0.74 µM | 1.84 10^6 M^−1 | –
CC(=O)N[C@@H](CCC(N)=O)C(=O)N[C@@H](CC(C)(C)C)C(=O)N[C@@H](CC(=O)O)C(=O)N[C@@H](CC(C)C)C(=O)N[C@@H](Cc1ccccc1)C(=O)O [Peptide P10, Ac-Gln-NptGly-Asp-Leu-Phe-OH] (Ac-Q[tBuAla]DLF-OH) | -8.36 kcal/mol | 0.99 µM | 1.36 10^6 M^−1 | –
CC(=O)N[C@@H](CCC(N)=O)C(=O)N[C@@H](CC1CCCCC1)C(=O)N[C@@H](CC(=O)O)C(=O)N[C@@H](CC(C)C)C(=O)N[C@@H](Cc1ccc(C)cc1)C(=O)O [Peptide P11, Ac-Gln-Cha-Asp-Leu-pMePhe-OH] (Ac-Q[Cha]DL[Phe(4-Me)]-OH) | -9.44 kcal/mol | 0.26 µM | 8.43 10^6 M^−1 | ΔG (β ring): -8.6 kcal/mol; N: number of binding sites per β monomer (β ring): 0.95; ΔΔG (Kcal/mol) = ΔGj − ΔGi, reference i = P7 (β ring; from ITC data): +0.25 Kcal/mol
CC(=O)N[C@@H](CCC(N)=O)C(=O)N[C@@H](CC1CCCCC1)C(=O)N[C@@H](CC(=O)O)C(=O)N[C@@H](CC(C)C)C(=O)N[C@@H](Cc1ccc(Cl)cc1)C(=O)O [Peptide P12, Ac-Gln-Cha-Asp-Leu-pClPhe-OH] (Ac-Q[Cha]DL[Phe(4-Cl)]-OH) | -9.73 kcal/mol | 0.16 µM | 13.7 10^6 M^−1 | N: number of binding sites per β monomer (β ring): 1.02 and 1.06; ΔΔG (Kcal/mol) = ΔGj − ΔGi, reference i = P7 (β ring; from ITC data): -0.6 kcal/mol; ΔΔG (Kcal/mol) = ΔGj − ΔGi, reference i = P11 (β ring; from ITC data, compared to P11): -0.85 kcal/mol; ΔΔG (Kcal/mol) = ΔGj − ΔGi, reference i = P13 (β ring; from ITC data, compared to P13): -0.32 kcal/mol
CC(=O)N[C@@H](CCCNC(=N)N)C(=O)N[C@@H](CCC(N)=O)C(=O)N[C@@H](CC1CCCCC1)C(=O)N[C@@H](CCCNC(=N)N)C(=O)N[C@@H](CC(C)C)C(=O)N[C@@H](Cc1ccccc1)C(=O)O [Peptide P14-7, Ac R Q Cha R L F] (Ac-RQ[Cha]RLF-OH; N-terminus and C-terminus assumed) | – | – | – | affinity ratio compared to P7 (E. coli β clamp; SPR): at least 50
CC(=O)N[C@@H](CCCNC(=N)N)C(=O)N[C@@H](CCC(N)=O)C(=O)N[C@@H](CC1CCCCC1)C(=O)N[C@@H](CCCCN)C(=O)N[C@@H](CC(C)C)C(=O)N[C@@H](Cc1ccccc1)C(=O)O [Peptide P14-8, Ac R Q Cha K L F] (Ac-RQ[Cha]KLF-OH; C-terminus assumed) | – | – | – | Ki (E. coli β clamp): 904 nM; affinity for the target (E. coli β clamp; SPR): 1 µM; fold decrease in affinity compared to P14 (E. coli β clamp; SPR): 10 fold
CC(=O)N[C@@H](CCC(N)=O)C(=O)N[C@@H](CC1CCCCC1)C(=O)N[C@@H](CC(=O)O)C(=O)N[C@@H](CCC(C)C)C(=O)N[C@@H](Cc1ccccc1)C(=O)O [Peptide P16, Ac Q Cha D hLeu F] (Ac-Q[Cha]D[hLeu]F-OH; C-terminus assumed) | – | 0.23 µM | – | –
CC(=O)N[C@@H](CCC(N)=O)C(=O)N[C@@H](CC1CCCCC1)C(=O)N[C@@H](CC(=O)O)C(=O)N[C@@H](CC1CCCCC1)C(=O)N[C@@H](Cc1ccccc1)C(=O)O [Peptide P17, Ac Q Cha D Cha F] (Ac-Q[Cha]D[Cha]F-OH; C-terminus assumed) | – | 0.31 µM | – | –
CC(=O)N[C@@H](CCC(N)=O)C(=O)N[C@@H](CC1CCCCC1)C(=O)N[C@@H](CC(=O)O)C(=O)N[C@@H](CCC1CCCCC1)C(=O)N[C@@H](Cc1ccccc1)C(=O)O [Peptide P18, Ac Q Cha D hCha F] (Ac-Q[Cha]D[hCha]F-OH; C-terminus assumed) | – | 0.72 µM | – | –
CC(=O)N[C@@H](CCC(N)=O)C(=O)N[C@@H](CC1CCCCC1)C(=O)N[C@@H](CC(=O)O)C(=O)N[C@@H](CC(C)(C)C)C(=O)N[C@@H](Cc1ccccc1)C(=O)O [Peptide P19, Ac Q ChaD NptGly F] (Ac-Q[Cha]D[tBuAla]F-OH; C-terminus assumed) | – | 5.63 µM | – | –
CC(=O)N[C@@H](CCC(N)=O)C(=O)N[C@@H](CC1CCCCC1)C(=O)N[C@@H](CC(=O)O)C(=O)N[C@@H](CC(C)C)C(=O)N[C@@H](CC1CCCCC1)C(=O)O [Peptide P20, Ac-Q Cha DL Cha] (Ac-Q[Cha]DL[Cha]-OH; C-terminus assumed) | – | 0.41 µM | – | –
CC(=O)N[C@@H](CCC(N)=O)C(=O)N[C@@H](CC1CCCCC1)C(=O)N[C@@H](CC(=O)O)C(=O)N[C@@H](CC(C)C)C(=O)N[C@@H](Cc1c[nH]c2ccccc12)C(=O)O [Peptide P21, Ac-Q Cha DLW] (Ac-Q[Cha]DLW-OH; C-terminus assumed) | – | 0.64 µM | – | –
H-RQLVFL-OH [Peptide P4, H-Arg-Gln-Leu-Val-Phe-Leu-OH] | – | 256 µM | – | –
H-RQLVLL-OH [Peptide P2, H-Arg-Gln-Leu-Val-Leu-Leu-OH] | -6.54 kcal/mol | 21.5 µM | 0.0063 10^6 M^−1 | –
